Measurements published in patent US6432881B1 (dated 2002).

melting point: 82 °C
Structure (SMILES): Cn1nccc1OCc1c(S(C)(=O)=O)ccc(C(=O)C2C(=O)CC(C)(C)CC2=O)c1Cl (hydrate or solvate)
